Measured values taken from US8334239B2, “High affinity VEGF-receptor antagonists” (The Board of Regents of the University of Texas System, priority 2007, dated 2012).
“Also recorded” adds a separate entry of the source. Positions of bridges follow the written chain, without caps; N, C: chain ends. Non-standard residues stand in square brackets, D forms with d. Residues, ends and D or L forms follow the SMILES beside them. Chains are numbered I, II in the order given. *: point of attachment. Fluorescein(5-Mal) = O=C1OC2(c3ccc(O)cc3Oc3cc(O)ccc32)c2ccc(N3C(=O)CC(*)C3=O)cc21; Gly(N(CH2)2(3-indolyl)) = O=C(O)CNCCc1c[nH]c2ccccc12; Gly(N-piperonyl) = O=C(O)CNCc1ccc2c(c1)OCO2; Nrpe = C[C@@H](NCC(=O)O)c1ccccc1; NFurfurylGly = O=C(O)CNCc1ccco1; Nleu = CC(C)CNCC(=O)O; Nlys = NCCCCNCC(=O)O; Ahx = NCCCCCC(=O)O; βAla = NCCC(=O)O

Legend:
VEGFR2 [1] = biological target: T1, VEGFR2 (Homo sapiens, UniProt P35968); assay: ELISA-like binding assay, fluoresceinated peptoids on immobilized VEGFR2 extracellular domain; set-up: VEGFR2 extracellular domain (amino acids 1-764 fused to 6× histidine-tagged Fc of human IgG, via the peptide IEGRMD; R&D Systems); linker peptide IEGRMD (internal); Fc of human IgG (C); 6xHis (C); purchased R&D Systems; settings: for Fold improved: binding improved compared to the monomer of the series
Procedure: ELISA based binding assay. White, clear bottom 96-well plates (Corning Inc.) were coated with of 1 μg/ml recombinant human VEGFR2 protein (R&D Systems) using the sensitizing buffer (0.621 g NaHCO3 & 0.275 g Na2CO3 dissolved on 100 ml of ddH2O, pH=9.5) overnight at 4° C. Washed with 3×200 μl of wash buffer 1×PBS with 0.05% Tween-20 and blocked with Startingblock blocking buffer (Pierce). Added 50 μl of serial dilutions of FITC labeled peptoids dissolved in Startingblock blocking buffer to each well & allowed to react for 1 h at room temperature. Washed with 5×200 μl of wash buffer 1×PBS with 0.05% Tween-20 and remaining fluorescence was measured at 520 nm using the plate reader.
The isolated peptoids are VEGFR2 ligands. Two of the ‘hits’ from this screen, GU40C and GU40E (see FIG. 2) were resynthesized, both as free compounds and with C-terminal Cys (for C-terminal fluorescein tagging via maleimide chemistry), cleaved from the beads and purified to apparent homogeneity by reverse phase HPLC. […] The association of these peptoids with VEGFR2 was evaluated using an ELISA-like assay. A commercially available fusion protein containing the VEGFR2 extracellular domain (amino acids 1-764 fused to 6× histidine-tagged Fc of human IgG, via the peptide IEGRMD; R&D Systems) was plated into 96-well plates and then mixed with various concentrations of […] Fluorescein (FITC)-labeled peptoid. After washing away unbound peptoid, the remaining fluorescence emission signal was measured at 520 nm. In this assay purified VEGFR2 protein was used instead of the whole PAE/KDR cells that over express VEGFR2, in order to confirm these compounds were binding only to the receptor.
Target sequence in this assay (P35968 20-764): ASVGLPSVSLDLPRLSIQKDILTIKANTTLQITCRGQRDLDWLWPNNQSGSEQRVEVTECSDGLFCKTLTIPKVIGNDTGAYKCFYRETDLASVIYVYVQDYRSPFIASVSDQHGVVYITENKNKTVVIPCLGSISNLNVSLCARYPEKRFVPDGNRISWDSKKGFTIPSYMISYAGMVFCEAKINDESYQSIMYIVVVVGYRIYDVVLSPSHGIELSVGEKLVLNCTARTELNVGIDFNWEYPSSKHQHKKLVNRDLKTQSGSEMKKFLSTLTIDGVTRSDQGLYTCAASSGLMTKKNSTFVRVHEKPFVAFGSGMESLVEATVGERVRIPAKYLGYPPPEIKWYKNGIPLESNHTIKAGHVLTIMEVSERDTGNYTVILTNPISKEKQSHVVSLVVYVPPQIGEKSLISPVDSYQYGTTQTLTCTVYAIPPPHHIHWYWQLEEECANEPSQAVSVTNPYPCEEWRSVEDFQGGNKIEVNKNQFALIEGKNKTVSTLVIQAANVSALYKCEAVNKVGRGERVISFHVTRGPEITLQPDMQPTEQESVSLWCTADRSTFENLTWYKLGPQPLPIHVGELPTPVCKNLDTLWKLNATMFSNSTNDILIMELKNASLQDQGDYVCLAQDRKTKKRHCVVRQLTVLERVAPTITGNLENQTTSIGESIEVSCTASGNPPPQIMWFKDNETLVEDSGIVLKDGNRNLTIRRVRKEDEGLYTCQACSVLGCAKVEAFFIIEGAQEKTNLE

VEGFR2 [2] = biological target: T1, VEGFR2; assay: VEGF-induced VEGFR2 autophosphorylation in PAE/KDR cells, Western blot; type: cell-based; set-up: allow the library to be screened against the full-length receptor in as natural an environment as possible; host or cells: PAE/KDR (porcine aortic endothelial cells expressing human KDR); settings: for agonist activity on VEGFR2 phosphorylation: PAE/KDR cells, Western blot; for effect on VEGF-induced VEGFR2 phosphorylation (in words): monomeric peptoids, 500 μM
Procedure: Western blots. Experiments were conducted using PAE/KDR cells that were grown on 6-well plates. […] The blots were probed with Phospho-VEGF receptor 2 (Tyr1175) (19A10) rabbit monoclonal or Total VEGFR2 primary antibodies (Cell signaling) and HRP-conjugated secondary antibody (BioRad).
Functional characterization of the VEGFR2-binding peptoids. GU40C and GU40E were then tested for their ability to modulate VEGFR function. Of course, since the screen simply demanded binding of the peptoid to the receptor, it was not a given that this would be the case. […] Western blot analysis using phospho-VEGFR2-specific antibodies was then employed to monitor receptor activation.
To do so, the inventors examined the effect of the peptoid on VEGF-induced VEGFR2 autophosphorylation by Western blotting, as described earlier.
Target sequence in this assay (P35968 20-1356): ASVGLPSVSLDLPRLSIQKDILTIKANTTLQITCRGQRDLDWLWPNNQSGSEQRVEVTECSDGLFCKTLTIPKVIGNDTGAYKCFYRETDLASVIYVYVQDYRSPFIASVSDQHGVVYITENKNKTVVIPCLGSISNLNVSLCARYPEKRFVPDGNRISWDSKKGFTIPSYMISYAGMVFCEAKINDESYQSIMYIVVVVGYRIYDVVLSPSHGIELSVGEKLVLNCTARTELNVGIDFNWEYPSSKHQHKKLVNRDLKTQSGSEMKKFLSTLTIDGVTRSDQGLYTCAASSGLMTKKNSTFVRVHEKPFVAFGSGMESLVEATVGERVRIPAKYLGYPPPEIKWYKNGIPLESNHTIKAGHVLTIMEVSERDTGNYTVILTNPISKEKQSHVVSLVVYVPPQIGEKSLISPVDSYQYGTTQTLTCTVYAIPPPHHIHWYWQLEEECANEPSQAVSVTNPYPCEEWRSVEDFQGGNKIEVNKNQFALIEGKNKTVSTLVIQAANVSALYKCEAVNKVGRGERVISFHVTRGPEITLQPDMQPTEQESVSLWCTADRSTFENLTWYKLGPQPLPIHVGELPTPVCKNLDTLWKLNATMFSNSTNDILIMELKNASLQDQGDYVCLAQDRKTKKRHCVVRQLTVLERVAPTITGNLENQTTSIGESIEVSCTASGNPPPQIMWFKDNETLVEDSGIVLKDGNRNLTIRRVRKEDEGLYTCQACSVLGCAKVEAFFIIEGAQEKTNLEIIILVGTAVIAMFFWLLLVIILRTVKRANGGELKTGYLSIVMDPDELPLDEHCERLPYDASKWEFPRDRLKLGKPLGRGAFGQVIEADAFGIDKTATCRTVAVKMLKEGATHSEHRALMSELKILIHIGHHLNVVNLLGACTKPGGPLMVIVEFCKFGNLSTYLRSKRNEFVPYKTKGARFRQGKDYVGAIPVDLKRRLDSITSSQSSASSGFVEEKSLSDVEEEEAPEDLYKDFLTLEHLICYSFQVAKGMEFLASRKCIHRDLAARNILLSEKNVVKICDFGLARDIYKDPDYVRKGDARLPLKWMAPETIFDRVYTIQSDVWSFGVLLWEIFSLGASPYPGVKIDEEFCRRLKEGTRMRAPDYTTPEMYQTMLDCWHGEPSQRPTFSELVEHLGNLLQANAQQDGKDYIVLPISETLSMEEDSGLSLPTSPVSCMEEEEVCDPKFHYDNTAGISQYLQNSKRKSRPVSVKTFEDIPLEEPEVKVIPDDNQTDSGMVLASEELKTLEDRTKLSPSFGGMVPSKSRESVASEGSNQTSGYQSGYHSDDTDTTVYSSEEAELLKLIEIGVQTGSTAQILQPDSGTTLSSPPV

GST = assay: ELISA-like binding assay on immobilized GST
CD105 = biological target: T2, CD105 (Homo sapiens, UniProt P17813); assay: ELISA-like binding assay on immobilized CD105; settings: same ELISA-like assay
T2 sequence (P17813 26-658): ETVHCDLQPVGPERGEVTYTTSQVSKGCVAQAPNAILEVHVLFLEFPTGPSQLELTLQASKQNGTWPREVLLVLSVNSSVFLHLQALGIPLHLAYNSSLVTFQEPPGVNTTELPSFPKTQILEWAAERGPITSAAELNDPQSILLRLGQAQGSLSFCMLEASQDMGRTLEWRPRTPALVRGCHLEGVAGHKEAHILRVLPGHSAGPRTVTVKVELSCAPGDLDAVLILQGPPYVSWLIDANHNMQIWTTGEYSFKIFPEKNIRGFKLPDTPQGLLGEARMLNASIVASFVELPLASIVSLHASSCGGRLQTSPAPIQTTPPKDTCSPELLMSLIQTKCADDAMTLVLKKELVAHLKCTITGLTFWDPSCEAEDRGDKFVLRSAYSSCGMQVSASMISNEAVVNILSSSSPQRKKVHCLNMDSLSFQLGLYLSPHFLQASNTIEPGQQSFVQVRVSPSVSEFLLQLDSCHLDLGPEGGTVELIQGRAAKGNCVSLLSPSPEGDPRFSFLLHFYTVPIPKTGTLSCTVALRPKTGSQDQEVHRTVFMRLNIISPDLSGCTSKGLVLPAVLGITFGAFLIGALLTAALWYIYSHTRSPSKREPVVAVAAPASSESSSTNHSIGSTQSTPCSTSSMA

Row | Compound | Fold improved (VEGFR2 [1]) [fold] | agonist activity on VEGFR2 phosphorylation (VEGFR2 [2]) | effect on VEGF-induced VEGFR2 phosphorylation (in words) (VEGFR2 [2]; 1.3 nM VEGF) | also measured
1 | CC(C)CN(CC(=O)N(CCCCN)CC(=O)N(CC(=O)N(CC(=O)N(CCCCN)CC(=O)N(CC(=O)N(CCCCN)CC(=O)N(CCCCN)CC(=O)NCCCC[C@H](NC(=O)CCNC(=O)CN(CCCCN)C(=O)CN(CCCCN)C(=O)CN(CC(C)C)C(=O)CN(CCCCN)C(=O)CN(Cc1ccc2c(c1)OCO2)C(=O)CN(C(=O)CN(CCCCN)C(=O)CN(CC(C)C)C(=O)CNCCCCN)[C@H](C)c1ccccc1)C(=O)N[C@@H](CSC1CC(=O)N(c2ccc3c(c2)C(=O)OC32c3ccc(O)cc3Oc3cc(O)ccc32)C1=O)C(N)=O)CC(C)C)Cc1ccc2c(c1)OCO2)[C@H](C)c1ccccc1)C(=O)CNCCCCN (some centres unmarked) [GU40C2] (I: H-[Nlys][Nleu][Nlys][Nrpe][Gly(N-piperonyl)][Nlys][Nleu][Nlys][Nlys][βAla]KC(Fluorescein(5-Mal))-NH2 / II: H-[Nlys][Nleu][Nlys][Nrpe][Gly(N-piperonyl)][Nlys][Nleu][Nlys][Nlys]; amide I:11-II:C; N-terminus assumed) | 11 | – | – | –
2 | CC(C)CN(CC(=O)N(CCCCN)CC(=O)N(CCCCN)CC(=O)NCCCC[C@H](NC(=O)CCNC(=O)CN(CCCCN)C(=O)CN(CCCCN)C(=O)CN(CC(C)C)C(=O)CN(CCCCN)C(=O)CN(CC(C)C)C(=O)CN(CCCCN)C(=O)CN(Cc1ccco1)C(=O)CN(CCCCN)C(=O)CNCCc1c[nH]c2ccccc12)C(=O)N[C@@H](CSC1CC(=O)N(c2ccc3c(c2)C(=O)OC32c3ccc(O)cc3Oc3cc(O)ccc32)C1=O)C(N)=O)C(=O)CN(CCCCN)C(=O)CN(CC(C)C)C(=O)CN(CCCCN)C(=O)CN(Cc1ccco1)C(=O)CN(CCCCN)C(=O)CNCCc1c[nH]c2ccccc12 (some centres unmarked) [GU40E2] (I: H-[Gly(N(CH2)2(3-indolyl))][Nlys][NFurfurylGly][Nlys][Nleu][Nlys][Nleu][Nlys][Nlys][βAla]KC(Fluorescein(5-Mal))-NH2 / II: H-[Gly(N(CH2)2(3-indolyl))][Nlys][NFurfurylGly][Nlys][Nleu][Nlys][Nleu][Nlys][Nlys]; amide I:11-II:C; N-terminus assumed) | 2 | – | – | –
3 | CC(C)CN(CC(=O)N(CCCCN)CC(=O)N(CCCCN)CC(=O)NCCCCCC(=O)NCCC(=O)N[C@@H](CCCCNC(=O)CN(CCCCN)C(=O)CN(CCCCN)C(=O)CN(CC(C)C)C(=O)CN(CCCCN)C(=O)CN(CC(C)C)C(=O)CN(CCCCN)C(=O)CN(Cc1ccco1)C(=O)CN(CCCCN)C(=O)CNCCc1c[nH]c2ccccc12)C(=O)N[C@@H](CSC1CC(=O)N(c2ccc3c(c2)C(=O)OC32c3ccc(O)cc3Oc3cc(O)ccc32)C1=O)C(N)=O)C(=O)CN(CCCCN)C(=O)CN(CC(C)C)C(=O)CN(CCCCN)C(=O)CN(Cc1ccco1)C(=O)CN(CCCCN)C(=O)CNCCc1c[nH]c2ccccc12 (some centres unmarked) [GU40E4] (I: H-[Gly(N(CH2)2(3-indolyl))][Nlys][NFurfurylGly][Nlys][Nleu][Nlys][Nleu][Nlys][Nlys][Ahx][βAla]KC(Fluorescein(5-Mal))-NH2 / II: H-[Gly(N(CH2)2(3-indolyl))][Nlys][NFurfurylGly][Nlys][Nleu][Nlys][Nleu][Nlys][Nlys]; amide I:12-II:C; N-terminus assumed) | 9 | – | – | –
4 | CC(C)CN(CC(=O)N(CCCCN)CC(=O)N(CCCCN)CC(N)=O)C(=O)CN(CCCCN)C(=O)CN(CC(C)C)C(=O)CN(CCCCN)C(=O)CN(Cc1ccco1)C(=O)CN(CCCCN)C(=O)CNCCc1c[nH]c2ccccc12 [GU40E, Ntrp-Nlys-Nffa-Nlys-Nleu-Nlys-Nleu-Nlys-Nlys] (H-[Gly(N(CH2)2(3-indolyl))][Nlys][NFurfurylGly][Nlys][Nleu][Nlys][Nleu][Nlys][Nlys]-NH2) | – | Neither peptoid at any concentration tested evinced agonist activity; also recorded: None of the peptoids exhibited agonist activity | weak antagonists | binding after pre-incubation of immobilized receptor with unlabeled VEGF (VEGFR2 [1]; fluoresceinated peptoid): almost no binding; binding to GST (GST): did not bind detectably; binding to CD105 (CD105): did not bind detectably
5 | Avastin: ultra-high affinity anti-VEGF antibody employed clinically [reference compound] | – | – | – | effect on VEGFR2 autophosphorylation (in words) (VEGFR2 [2]; 1 μM, 1.3 nM VEGF): completely blocked
6 | Nlys-Npip-Nleu-Nlys-Npip-Nlys-Nleu-Nlys-Nlys [GU40B] | – | None of the peptoids exhibited agonist activity | no effect | –
